Data as given in ChEMBL document CHEMBL4043062, “Recent developments in the isolation, biological function, biosynthesis, and synthesis of phenazine natural products” (Bioorg Med Chem, 2017).
In brackets after ≈: the same amount, converted by molar mass.

System: Mycobacterium tuberculosis
Test: Antitubercular activity against rifampicin-resistant Mycobacterium tuberculosis ATCC 35338 harboring His-526-Tir mutation in rpoB gene after 7 days by Resazurin microtitre assay
Type: functional

## C=CCC1Cc2c(c3ccccc3c3nc4ccccc4nc23)OC1(C)C (stereo unspecified)
  MIC: 2.2 µM (≈ 0.78 µg/mL)
